According to patent US6627227B2, “Use of saw palmetto to prevent atherosclerosis” (priority 2000, dated 2003):

Legend:
[1] = Retrospective chart review of cardiac events in prostate cancer patients on LHRH inhibitors vs controls; format: in vivo; details: treated patients vs controls
Experimental: The patients on either Leuprolide or Goserelin were treated with the recommended doses indicated for the treatment of prostatic carcinoma, at either one or three month intervals depending on the preparation used. Leuprolide was dosed at 7.5 mg monthly (single intramuscular injection) or at 22.5 mg at 3 month intervals (single intramuscular injection). Goserelin was dosed at 3.6 mg monthly or at a dose of 10.8 mg at 3 month intervals (subcutaneous injection). The various groups of office patients were evaluated by chart review. In groups 2 and 3 only those on drug for at least one year were considered. Cardiac event is defined either the history of a heart attack or occurrence of coronary artery bypass or angioplasty. In control groups only events occurring in the 3 years prior to the questionnaire are charted.

[2] = Second study: patient questionnaire, cardiac events in patients taking finasteride; format: in vivo; details: 4 events over 242 patient-years; control 3.5%/yr.
Experimental: Finasteride was being administered at a dosage of a single oral 5 mg tablet a day. This is the same tablet used in treatment of BPH as disclosed in U.S. Pat. No. 5,175,155 and such dosage applies in the present invention. However, use of a 2 mg or 10 mg oral tablet is contemplated. In the second study patients of the practice were given a questionnaire. Various patients had been treated with finasteride for varying lengths of time. Only those on the drug for at least one year were considered. The average time on finasteride was 3 years. The number of cardiac events occurring in the patients taking finasteride was only 4 events over 242 patient-years. (1.6%/yr.) In the control group 26 events occurred in the 3 years prior over 732 patient-years. (3.5%/yr.) The 45% decrease observed in cardiac events is believed to be significant. (90% Cl equal to 1.4% to 3.7%)

CC(=O)O.CCNC(=O)[C@@H]1CCCN1C(=O)[C@H](CCCNC(=N)N)NC(=O)[C@H](CC(C)C)NC(=O)[C@@H](CC(C)C)NC(=O)[C@H](Cc1ccc(O)cc1)NC(=O)[C@H](CO)NC(=O)[C@H](Cc1c[nH]c2ccccc12)NC(=O)[C@H](Cc1c[nH]cn1)NC(=O)[C@@H]1CCC(=O)N1 [Lupron, 5-oxo-L-prolyl-L-histidyl-L-tryptophyl-L-seryl-L-tyrosyl-D-leucyl-L-leucyl-L-arginyl-N-ethyl-L-prolinamide acetate salt]
heart attacks compared with controls [1]: fewer heart attacks than controls

CC(C)C[C@H](NC(=O)[C@@H](COC(C)(C)C)NC(=O)[C@H](Cc1ccc(O)cc1)NC(=O)[C@H](CO)NC(=O)[C@H](Cc1c[nH]c2ccccc12)NC(=O)[C@H](Cc1cnc[nH]1)NC(=O)[C@@H]1CCC(=O)N1)C(=O)N[C@@H](CCCNC(=N)N)C(=O)N1CCC[C@H]1C(=O)NNC(N)=O [Zoladex, pyro-Glu-His-Trp-Ser-Tyr-D-Ser(Bu^t)-Leu-Arg-Pro-Azgly-NH2 acetate]
heart attacks compared with controls [1]: fewer heart attacks than controls

CC(C)(C)NC(=O)[C@H]1CC[C@H]2[C@@H]3CC[C@H]4NC(=O)C=C[C@]4(C)[C@H]3CC[C@]12C [finasteride, 4-azaandrost-1-ene-17-carboxamide, N-(1,1-dimethylethyl)-3-oxo-(5a 17B)-]
cardiac event rate [2]: 1.6 %/yr.
